According to patent US10570184B2, “GLP-1/glucagon receptor co-agonists for medical use” (Novo Nordisk A/S, priority 2014, dated 2020):
Residues, ends and D or L forms follow the SMILES beside them.

Experiments:
[1] = target: T1, human GLP-1 receptor (Homo sapiens, UniProt P43220); experiment: Assay (I)(a) GLP-1 receptor activation, CRE luciferase reporter gene assay in BHK cells; type: cell-based; settings: without presence of serum albumin; read-out: GLP-1R EC50 (pM) [Assay (I)(a)]
T1 construct: expressed in transfected cells; host or cells: membranes of BHK cells (parent BHKTS13), clone FCW467-12A
T1 sequence (P43220 24-463): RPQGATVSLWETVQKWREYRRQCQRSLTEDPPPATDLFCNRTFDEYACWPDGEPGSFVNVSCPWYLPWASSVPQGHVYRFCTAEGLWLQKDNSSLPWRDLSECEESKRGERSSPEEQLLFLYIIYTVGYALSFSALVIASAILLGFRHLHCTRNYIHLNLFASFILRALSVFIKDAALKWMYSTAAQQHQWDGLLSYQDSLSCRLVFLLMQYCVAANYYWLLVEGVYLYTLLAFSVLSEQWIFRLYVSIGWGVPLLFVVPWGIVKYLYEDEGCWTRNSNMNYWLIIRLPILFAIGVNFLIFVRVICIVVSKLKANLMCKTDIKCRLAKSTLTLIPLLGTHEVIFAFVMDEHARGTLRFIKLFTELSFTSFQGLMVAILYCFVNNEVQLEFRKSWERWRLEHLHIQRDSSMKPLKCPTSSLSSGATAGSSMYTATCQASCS
Summary of the method: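 Stable BHK clone expressing human GLP-1 receptor with CRE-driven firefly luciferase, 5×10EE3 cells/well in medium with 2% ovalbumin and 0.2% Pluronic F-68. Compounds at 1×10EE-13 to 1×10EE-6 M final, 3 h at 37° C.; luminescence read, EC50 (pM) from four-parameter fit.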

[2] = target: T2, human glucagon receptor (Homo sapiens, UniProt P47871); experiment: Assay (I)(b) glucagon receptor activation, CRE luciferase reporter gene assay in BHK cells; type: cell-based; settings: without presence of serum albumin; read-out: GlucagonR EC50 (pM), [Assay (I)(b)]
T2 construct: expressed in transfected cells; host or cells: membranes of BHK cells, clone BHK hGCGR A3*25
T2 sequence (P47871 26-477): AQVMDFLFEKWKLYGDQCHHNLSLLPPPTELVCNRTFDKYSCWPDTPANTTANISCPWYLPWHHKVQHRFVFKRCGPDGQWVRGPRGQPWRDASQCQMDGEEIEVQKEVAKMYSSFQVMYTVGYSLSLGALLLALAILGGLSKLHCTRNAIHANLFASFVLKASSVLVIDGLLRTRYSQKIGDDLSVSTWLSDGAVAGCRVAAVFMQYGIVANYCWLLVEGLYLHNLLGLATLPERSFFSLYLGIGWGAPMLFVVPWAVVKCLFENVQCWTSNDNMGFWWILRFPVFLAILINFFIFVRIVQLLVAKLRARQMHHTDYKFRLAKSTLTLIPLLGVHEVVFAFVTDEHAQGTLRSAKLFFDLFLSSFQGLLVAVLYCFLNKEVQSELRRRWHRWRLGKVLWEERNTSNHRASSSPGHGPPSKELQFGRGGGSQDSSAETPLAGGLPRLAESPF
Protocol: The purpose of this example was to test the activity or potency, of the glucagon derivatives of the invention, in vitro. The in vitro potency is the measure of human GLP-1 receptor (GLP-1R) or glucagon receptor (glucagonR) activation, respectively, in a whole cell assay. In vitro potency was determined by measuring the response of human GLP-1 or glucagon receptor, respectively, in a reporter gene assay. The assay was performed in a stably transfected BHK cell line that expresses either the human GLP-1 receptor or the human glucagon receptor and contains the DNA for the cAMP response element (CRE) coupled to a promoter and the gene for firefly luciferase (CRE luciferase). […] When assay incubation was completed, the luciferase substrate (luciferin) was added and the enzyme converted luciferin to oxyluciferin and produces bioluminescence. The luminescence was measured as the readout for the assay. The cells used in this assay (clone pLJ6′-4-25) were BHK cells with BHK570 as a parent cell line expressing the CRE luciferase gene (clone BHK/KZ10-20-48) and were established by further transfection with the human glucagon receptor (clone pLJ6′ in pHZ-1 vector). The cells were cultured at 5% CO2 in DMEM medium with 10% FBS, 1×GlutaMAX, 1 mg/ml G418, 240 nM MTX (methotrexate) and 1% pen/strep (penicillin/streptomycin). They were aliquoted and stored in liquid nitrogen. Before each assay, an aliquot was taken up and washed three times in PBS before being suspended at the desired concentration in assay medium. For 96-well plates the suspension was made to give a final concentration of 5×10EE3 cells/well. The following chemicals were used in the assay: Pluronic F-68 (10%) (Gibco 2404), ovalbumin (Sigma A5503), DMEM w/o phenol red (Gibco 11880-028), 1 M Hepes (Gibco 15630), Glutamax 100× (Gibco 35050) and steadylite plus (PerkinElmer 6016757). Assay Medium consisted of DMEM w/o phenol red, 10 mM Hepes, 1× GlutaMAX, 2% Ovalbumin and 0.2% Pluronic F-68. Cell stocks were thawed in a 37° C. water bath. Cells were washed three times in PBS. The cells were counted and adjusted to 5×10EE3 cells/50 μl (1×10EE5 cells/ml) in Assay Medium. A 50 μl aliquot of cells was transferred to each well in the assay plate. Stocks of the test compounds and reference compounds were diluted to a concentration of […] in Assay Medium. Compounds were diluted 10-fold to give the following concentrations: 2×10EE-6 M, 2×10EE-7 M, 2×10EE-8 M; 2×10EE-9 M, 2×10EE-10 M, 2×10EE-11 M, 2×10EE-12 M and 2×10EE-13 M. For each compound a blank assay medium control was also included. A 50 μl aliquot of compound or blank was transferred from the dilution plate to the assay plate. Compounds were tested at the following final concentrations: 1×10EE-6 M, 1×10EE-7 M, 1×10EE-8 M; 1×10EE-9 M, 1×10EE-10 M, 1×10EE-11 M and 1×10EE-12 M and 1×10EE-13 M. The assay plate was incubated for 3 h in a 5% CO2 incubator at 37° C. The assay plate was removed from the incubator and allowed to stand at room temperature for 15 min. A 100 μl aliquot of steadylite plus reagent was added to each well of the assay plate (reagent is light sensitive). Each assay plate was covered with aluminum foil to protect it from light and shaken for 30 min at room temperature. Each assay plate was read in a Perkin Elmer TopCount NXT instrument. The data from the TopCount instrument was transferred to GraphPad Prism software. The software performed a non-linear regression (log(agonist) vs response-Variable slope (four parameter)). EC50 values were calculated by the software and reported in pM.

Compound: CC[C@H](C)[C@H](NC(=O)[C@H](CC(C)C)NC(=O)[C@H](Cc1c[nH]c2ccccc12)NC(=O)[C@H](CCC(N)=O)NC(=O)[C@@H](NC(=O)[C@H](Cc1ccccc1)NC(=O)[C@H](CC(=O)O)NC(=O)[C@H](CCCNC(=N)N)NC(=O)[C@H](C)NC(=O)[C@H](CCCNC(=N)N)NC(=O)[C@H](CCCNC(=N)N)NC(=O)[C@H](C)NC(=O)[C@H](CC(=O)O)NC(=O)[C@H](CC(C)C)NC(=O)[C@H](Cc1ccc(O)cc1)NC(=O)[C@H](CCCCN)NC(=O)[C@H](CO)NC(=O)[C@H](CC(C)C)NC(=O)[C@H](CC(=O)O)NC(=O)[C@H](CO)NC(=O)[C@@H](NC(=O)[C@H](Cc1ccccc1)NC(=O)[C@@H](NC(=O)CNC(=O)[C@H](CCC(N)=O)NC(=O)C(C)(C)NC(=O)[C@@H](N)Cc1c[nH]cn1)[C@@H](C)O)[C@@H](C)O)C(C)C)C(=O)N[C@@H](CCCCNC(=O)CC[C@H](NC(=O)CC[C@H](NC(=O)CC[C@H](NC(=O)CCCCCCCCCCCCCCCCC(=O)O)C(=O)O)C(=O)O)C(=O)O)C(=O)N[C@H](C(N)=O)[C@@H](C)O [Chem. 15, N^ε28-[(4S)-4-carboxy-4-[[(4S)-4-carboxy-4-[[(4S)-4-carboxy-4-(17-carboxyheptadecanoylamino)butanoyl]amino]butanoyl]amino]butanoyl]-[Aib2,Leu10,Ala16,Arg20,Ile27,Lys28]-Glucagon amide] (HELM PEPTIDE1{H.[Aib].Q.G.T.F.T.S.D.L.S.K.Y.L.D.A.R.R.A.R.D.F.V.Q.W.L.I.K.T.[am]}|PEPTIDE2{[O=C(O)CCCCCCCCCCCCCCCCC(=O)[*:2]].[gGlu].[gGlu].[gGlu]}$PEPTIDE1,PEPTIDE2,28:R3-4:R2$$$V2.0)
- EC50 [1]: 4 pM
- EC50 [2]: 7 pM
